Like-named read-outs stand apart in the source and are kept apart here. Marks after values point to notes of the source that are not given here.
What was measured:
pigs = test: Minolta Chroma Meter L*, a*, b* of pork chops in simulated retail display; assay type: in vivo
Procedure: Young pigs were fed a diet containing 15 IU/kg feed (=15 mg/kg feed=[…]) vitamin E (in the form of alpha-tocopherol acetate) up to 120 pounds. Upon reaching 120 pounds, the pigs were randomly assigned to treatments using weight as a blocking factor. Sixteen pigs were allocated to the control diet, while thirteen pigs were allocated to each test diet. Treatments consisted of typical corn-soybean meal based diets with three levels of dietary tocopherol: (1) Control diet (15 mg/kg feed alpha-tocopherol acetate); (2) diets supplemented with 150, 300 or 450 mg/kg feed alpha-tocopherol acetate; and (3) diets supplemented with 150, 300 or 450 mg/kg feed gamma-tocopherol. Diets were formulated to provide adequate levels of all nutrients and fed in four phases.
Pork chops (2.5 cm) were cut from vacuum-packaged pork loins that had been stored for 21 days at 1 degree C. Freshly cut chops were placed on styrofoam trays with DriLoc (V 50 pads) and overwrapped with PVC (23,250 cc/m 2 /24 hours oxygen permeability). Pork chops were placed in simulated retail display at 2±3 degrees C. for six days. Product temperature was monitored during the display period. Chops were analyzed for lightness (L*), redness (a*), and yellowness (b*) using Illuminant C or D65 on a Minolta Chroma Meter. Three readings per chop were taken on display days 0, 1, 2, 3, 4 and 5.
Data were analyzed using the GLM procedure of SAS. Due to a limited number of observations from the 150 IU alpha-tocopherol treatment, no estimates of carcass or loin quality measures are presented for that treatment. Data collected over a period of days were also analyzed as a splitplot. Contrasts were made between the Control and added tocopherol diets, Control and alpha-tocopherol, Control and gamma-tocopherol, and alpha- versus gamma-tocopherol.

[1] = Lamb loin antioxidant concentrations
lambs = test: Growth performance in lambs; assay type: in vivo; settings: for Interim BW: after 20 days on test; for Final BW: after 43 days on test
From the text: The effects of diet supplementation with alpha-tocopherol and gamma-tocopherol on tissue oxidation and storage life of fresh meat from lambs fed a diet supplemented with tocopherol was studied. A total of 42 weaned Western white-faced lambs (4 ewes, 38 males) were used in a feeding trial. The lambs were housed two per pen in a slatted floor barn and initially fed chopped oat hay, then gradually acclimated to a beet pulp-based basal diet. The basal ration consisted of 82.2% beet pulp pellets, 9.5% chopped oat hay, 6.0% liquid molasses, 1.5% soybean meal, 0.8% mineralized salt, and monensin (30 g/ton). All lambs were given ad libitum access to the basal diet.
The basal diet was fed for 60 days and on days 61 and 62, lambs were weighed to calculate initial body weight. Lambs were blocked by weight, without regard to gender, and randomly assigned within weight blocks to pens, and pens were randomly assigned to dietary treatments (14 lambs/treatment).
Interim and final weights were taken on two consecutive days after 20 and 43 days on test, respectively, to calculate average daily weight gain (ADG) and feed conversion. On the 45th day on test, the lambs were transported to a commercial packing plant and slaughtered the following morning. Standard carcass data were collected.
The fourth column is standard error of measurement (SEM). The last two columns are P values for the statistical comparison of the alpha group versus the gamma group, and the control group versus the alpha and gamma groups.

in vivo = settings: male, sheep (lambs)
iron-loaded rats = settings: ability to inhibit lipid peroxidation; cited from earlier work
[2] = male, sheep (lambs), in vivo

SMILES	Minolta L* values (after 5 day retail display) (pigs; all supplemented levels pooled)	Minolta a* values (after 5 day retail display) (pigs; all supplemented levels pooled)	Minolta b* values (after 5 day retail display) (pigs; all supplemented levels pooled)	Minolta L* values (after 5 day retail display) (pigs; dietary level 300 IU)	Minolta a* values (after 5 day retail display) (pigs; dietary level 300 IU)	Minolta b* values (after 5 day retail display) (pigs; dietary level 300 IU)	Minolta L* values (after 5 day retail display) (pigs; dietary level 450 IU)	Minolta a* values (after 5 day retail display) (pigs; dietary level 450 IU)	Minolta b* values (after 5 day retail display) (pigs; dietary level 450 IU)	Gain: feed (lambs; 1st 20 Days) [g/kg]	Intake (lambs; 1st 20 Days) [kg/day]	ADG (lambs; 1st 20 Days, 500 IU/kg/day) [g/day]	ADG (lambs; 2nd 23 Days)	Gain: feed (lambs; 2nd 23 Days)	Intake (lambs; 2nd 23 Days) [kg/day]	ADG (lambs; Overall) [g/day]	Gain: feed (lambs; Overall)	Intake (lambs; Overall) [kg/day]	Interim BW (lambs) [kg]	Final BW (lambs) [kg]	further results
Cc1c(C)c2c(c(C)c1O)CC[C@@](C)(CCC[C@H](C)CCC[C@H](C)CCCC(C)C)O2 [Alpha-tocopherol, alpha-tocopherol, reference compound]	43.6	7.49	4.95	45.3^ab	8.40^a	5.93^ab	41.9^bc	6.58^b	3.97^bc	124.2	1.43	164.1	190.9^b g/d	127.1^a g/kg	1.54	182.3	126.0^a g/kg	1.49	52.1	56.6	Alpha-Tocopherol in loin ([1]; Day 1): 3.83^a μg/g; Gamma-Tocopherol in loin ([1]; Day 1): 0.30^b μg/g; Total antioxidant in loin ([1]; Day 1): 4.13^b μg/g; Alpha-Tocopherol in loin ([1]; Day 6): 6.22^a μg/g; Gamma-Tocopherol in loin ([1]; Day 6): 0.43^b μg/g; Total antioxidant in loin ([1]; Day 6): 6.70^b μg/g; Alpha-Tocopherol in loin ([1]; Overall): 5.04^a μg/g; Gamma-Tocopherol in loin ([1]; Overall): 0.37^b μg/g; Total antioxidant in loin ([1]; Overall): 5.41^b μg/g; ADG (lambs; 2nd 23 Days, listed as alpha-tocopherol): 190.9 g/day
Cc1c(O)cc2c(c1C)O[C@](C)(CCC[C@H](C)CCC[C@H](C)CCCC(C)C)CC2 [Gamma-tocopherol, gamma-tocopherol]	41.4	8.13	4.48	39.7^c	8.20^a	3.85^c	43.0^b	8.05^a	5.12^bc	132.6	1.35	173.5	264.0^a g/d	187.2^b g/kg	1.45	221.9	162.8^b g/kg	1.40	53.0	59.1	concentration at 1 day (in vivo): 7180 ng/g; concentration at 6 day (in vivo): 5570 ng/g; Minolta L* values (after 5 day retail display) (pigs; dietary level 150 IU): 42.4^bc; Minolta a* values (after 5 day retail display) (pigs; dietary level 150 IU): 7.57^ab; Minolta b* values (after 5 day retail display) (pigs; dietary level 150 IU): 5.13^bc; Minolta a* values (after 5 day retail display) (pigs; dietary level 300 IU, listed as gamma-tocopherol): 8.40; antioxidant efficacy relative to alpha-tocopherol on a per unit mass basis (iron-loaded rats): about one-third; ADG (lambs; 2nd 23 Days, listed as gamma-tocopherol): 264.0 g/day; Alpha-Tocopherol in loin [2]: 3.22^b μg/g; Increase of tissue gamma-tocopherol level over control treatment [2]: over 35 times; Total antioxidant in loin [2]: 9.57^a μg/g; Alpha-Tocopherol in loin ([2]; 1 day): 3.47^a μg/g; Total antioxidant in loin ([2]; 1 day): 10.6^a μg/g; Alpha-Tocopherol in loin ([2]; 6 day): 2.87^b μg/g; Total antioxidant in loin ([2]; 6 day): 8.47^a μg/g

Reference: patent publication US6977269B1, “Method of improving animal tissue quality” (Pioneer Hi-Bred International, Inc, priority 2001, dated 2005)
